Legend:
M-HeLa = experiment: Anticancer activity against human HelaM cells assessed as cell growth inhibition measured after 24 hrs by DAPI and propidium iodide staining based assay; type: functional
[1] = Cytotoxicity against human Chang liver cells assessed as cell growth inhibition measured after 24 hrs by DAPI and propidium iodide staining based assay; type: toxicity
FaDu = experiment: Anticancer activity against human FaDu cells assessed as cell growth inhibition; type: functional, cell-based
HCT-116 = experiment: Anticancer activity against human HCT-116 cells assessed as cell growth inhibition measured after 48 hrs by MTT assay; type: functional, cell-based; details: HCT-116, 48 h
MCF7 [2] = experiment: Anticancer activity against human MCF7 cells assessed as cell growth inhibition measured after 48 hrs by MTT assay; type: functional, cell-based; details: MCF7, 48 h
HepG2 [3] = experiment: Anticancer activity against human HepG2 cells assessed as cell growth inhibition measured after 48 hrs by MTT assay; type: functional, cell-based; details: HepG2, 48 h
PC-3 = experiment: Anticancer activity against human PC-3 cells assessed as cell growth inhibition measured after 48 hrs by MTT assay; type: functional, cell-based; details: PC-3, 48 h
HepG2 [4] = experiment: Anticancer activity against human HepG2 cells assessed as cell growth inhibition at 100 uM by MTT assay relative to control; type: functional
MCF7 [5] = experiment: Anticancer activity against human MCF7 cells assessed as cell growth inhibition at 100 uM by MTT assay relative to control; type: functional
A-431 = experiment: Anticancer activity against human A-431 cells assessed as cell growth inhibition at 100 uM by MTT assay relative to control; type: functional

SMILES	IC50 (M-HeLa) [µM]	IC50 at 24 h [1] [µM]	IC50 (FaDu) [µM]	also measured
Oc1ccc2c(c1)OCO2	14.7	> 100		
COc1ccc(-c2c(O)c3ccccc3oc2=O)cc1	≥ 14.7	> 100		
CCCCCCc1c(O)c2ccccc2oc1=O	≥ 14.7	> 100		
CCCCCCc1c(O)cc(C)oc1=O	≥ 14.7	> 100		
O=C1Nc2ccccc2[C@@]12N[C@H](Cc1c[nH]c3ccccc13)[C@@H]([N+](=O)[O-])[C@@H]2c1ccccc1			30	
O=C1Nc2ccc(OC(F)(F)F)cc2[C@@]12N[C@H](Cc1c[nH]c3ccccc13)[C@@H]([N+](=O)[O-])[C@@H]2c1ccccc1			≥ 30	
O=C1Nc2ccccc2[C@@]12N[C@H](Cc1c[nH]c3ccccc13)[C@@H]([N+](=O)[O-])[C@@H]2c1ccc(Br)cc1			39.7	
O=C1Nc2ccccc2[C@@]12N[C@H](Cc1c[nH]cn1)[C@@H]([N+](=O)[O-])[C@@H]2c1cccc([N+](=O)[O-])c1			≥ 30	
O=C1Nc2ccc(OC(F)(F)F)cc2[C@@]12N[C@H](Cc1c[nH]cn1)[C@@H]([N+](=O)[O-])[C@@H]2c1ccc(Cl)cc1			≥ 30	
Cc1ccc([C@H]2[C@H]([N+](=O)[O-])[C@@H](Cc3c[nH]cn3)N[C@]23C(=O)Nc2ccc(OC(F)(F)F)cc23)cc1			≥ 30	
Cc1ccc([C@H]2[C@H]([N+](=O)[O-])[C@@H](Cc3c[nH]cn3)N[C@]23C(=O)Nc2ccccc23)cc1			≥ 30	
O=C1Nc2ccc(OC(F)(F)F)cc2[C@@]12N[C@H](Cc1c[nH]cn1)[C@@H]([N+](=O)[O-])[C@@H]2c1ccc(Br)cc1			≥ 30	
Cc1ccc([C@H]2[C@H]([N+](=O)[O-])[C@@H](Cc3c[nH]c4ccccc34)N[C@]23C(=O)Nc2ccccc23)cc1			≥ 30	
O=C1Nc2ccccc2[C@@]12N[C@H](Cc1c[nH]c3ccccc13)[C@@H]([N+](=O)[O-])[C@@H]2c1ccccc1Cl			≥ 30	
O=C1Nc2ccc(OC(F)(F)F)cc2[C@@]12N[C@H](Cc1c[nH]cn1)[C@@H]([N+](=O)[O-])[C@@H]2c1cccc([N+](=O)[O-])c1			≥ 30	
O=C1Nc2ccccc2[C@@]12N[C@H](Cc1c[nH]cn1)[C@@H]([N+](=O)[O-])[C@@H]2c1ccc(Br)cc1			40.1	
COc1ccc([C@H]2[C@H]([N+](=O)[O-])[C@@H](Cc3c[nH]cn3)N[C@]23C(=O)Nc2ccccc23)cc1			≥ 30	
COc1ccc([C@H]2[C@H]([N+](=O)[O-])[C@@H](Cc3c[nH]cn3)N[C@]23C(=O)Nc2ccc(OC(F)(F)F)cc23)cc1			≥ 30	
COc1ccc([C@H]2[C@H]([N+](=O)[O-])[C@@H](Cc3c[nH]c4ccccc34)N[C@]23C(=O)Nc2ccccc23)cc1			≥ 30	
O=C1Nc2ccccc2[C@@]12N[C@H](Cc1c[nH]c3ccccc13)[C@@H]([N+](=O)[O-])[C@@H]2c1cccc([N+](=O)[O-])c1			≥ 30	
O=C1Nc2ccc(OC(F)(F)F)cc2[C@@]12N[C@H](Cc1c[nH]cn1)[C@@H]([N+](=O)[O-])[C@@H]2c1ccccc1			≥ 30	
O=C1Nc2ccccc2[C@@]12N[C@H](Cc1c[nH]cn1)[C@@H]([N+](=O)[O-])[C@@H]2c1ccccc1Cl			≥ 30	
Cc1ccc([C@H]2[C@H]([N+](=O)[O-])[C@@H](Cc3c[nH]c4ccccc34)N[C@]23C(=O)Nc2ccc(OC(F)(F)F)cc23)cc1			≥ 30	

SMILES	IC50 (M-HeLa) [µM]	IC50 at 24 h [1] [µM]	IC50 (FaDu) [µM]	also measured
O=C1Nc2ccc(OC(F)(F)F)cc2[C@@]12N[C@H](Cc1c[nH]cn1)[C@@H]([N+](=O)[O-])[C@@H]2c1ccccc1Cl			≥ 30	
O=C1Nc2ccccc2[C@@]12N[C@H](Cc1c[nH]c3ccccc13)[C@@H]([N+](=O)[O-])[C@@H]2c1ccc(Cl)cc1			≥ 30	
COc1ccc([C@H]2[C@H]([N+](=O)[O-])[C@@H](Cc3c[nH]c4ccccc34)N[C@]23C(=O)Nc2ccc(OC(F)(F)F)cc23)cc1			≥ 30	
O=C1Nc2ccccc2[C@@]12N[C@H](Cc1c[nH]cn1)[C@@H]([N+](=O)[O-])[C@@H]2c1ccc(Cl)cc1			≥ 30	
O=C1Nc2ccccc2[C@@]12N[C@H](Cc1c[nH]cn1)[C@@H]([N+](=O)[O-])[C@@H]2c1ccccc1			43	
O=C1Nc2ccc(OC(F)(F)F)cc2[C@@]12N[C@H](Cc1c[nH]c3ccccc13)[C@@H]([N+](=O)[O-])[C@@H]2c1cccc([N+](=O)[O-])c1			≥ 30	
O=C1Nc2ccc(OC(F)(F)F)cc2[C@@]12N[C@H](Cc1c[nH]c3ccccc13)[C@@H]([N+](=O)[O-])[C@@H]2c1ccccc1Cl			≥ 30	
O=C1Nc2ccc(OC(F)(F)F)cc2[C@@]12N[C@H](Cc1c[nH]c3ccccc13)[C@@H]([N+](=O)[O-])[C@@H]2c1ccc(Br)cc1			≥ 30	
O=[N+]([O-])c1c(Cl)cc2c(no[n+]2[O-])c1Nc1ccc(-c2ccc(Br)cc2)c(O)c1	≥ 14.7	> 100		
O=C(/C=C/c1ccc(Br)cc1)[C@H]1[C@H](c2ccc(Br)cc2)C2CSCN2C12C(=O)Nc1c(Br)cc(Br)cc12 (stereo partly drawn)				IC50 (HCT-116): 2.2 µM; IC50 (MCF7 [2]): 2.5 µM
Oc1cc2c(cc1-c1ccccc1)OCO2	14.7	> 100		
Cc1cc(O)c(CCN(C)C)c(=O)o1	≥ 14.7	> 100		
Oc1cc2c(cc1-c1ccc(F)cc1)OCO2	14.7	> 100		
O=C(/C=C/c1ccco1)[C@H]1[C@H](c2ccco2)C2CSCN2C12C(=O)Nc1c(Br)cc(Br)cc12 (stereo partly drawn)				IC50 (HepG2 [3]): ≥ 0.8 µM; IC50 (HCT-116): 1.57 mg/L; IC50 (MCF7 [2]): 2.5 mg/L
Cc1cc(O)c(-c2ccc(Br)cc2)c(=O)o1	≥ 14.7	> 100		
O=c1oc2ccccc2c(O)c1-c1ccc(F)cc1	≥ 14.7	> 100		
Cc1ccc(/C=C/C(=O)[C@H]2[C@H](c3ccc(C)cc3)C3CSCN3C23C(=O)Nc2c(Br)cc(Br)cc23)cc1 (stereo partly drawn)				IC50 (HepG2 [3]): ≥ 0.8 µM; IC50 (HCT-116): 1.57 mg/L; IC50 (MCF7 [2]): 2.5 mg/L
O=C(/C=C/c1cccc([N+](=O)[O-])c1)[C@H]1[C@H](c2cccc([N+](=O)[O-])c2)C2CSCN2C12C(=O)Nc1c(Br)cc(Br)cc12 (stereo partly drawn)				IC50 (HepG2 [3]): 5 µM; IC50 (HCT-116): 2.8 µM; IC50 (MCF7 [2]): 4 µM
Cc1cc(O)c(C2CCCCC2)c(=O)o1	≥ 14.7	> 100		
CCCCCCc1cc2c(cc1O)OCO2	14.7	> 100		
O=[N+]([O-])c1c(Cl)cc2c(no[n+]2[O-])c1Nc1ccc(-c2ccc(F)cc2)c(O)c1	≥ 14.7	> 100		
O=[N+]([O-])c1c(Cl)cc2c(no[n+]2[O-])c1Nc1cccc(O)c1	≥ 14.7	> 100		
Cc1cc(O)c(-c2ccccc2)c(=O)o1	≥ 14.7	> 100		

SMILES	IC50 (M-HeLa) [µM]	IC50 at 24 h [1] [µM]	IC50 (FaDu) [µM]	also measured
CN(C)CCc1cc2c(cc1O)OCO2	14.7	> 100		
COc1ccc(-c2cc3c(cc2O)OCO3)cc1	14.7	> 100		
CCCCCCc1ccc(Nc2c([N+](=O)[O-])c(Cl)cc3c2no[n+]3[O-])cc1O	≥ 14.7	> 100		
COc1ccc(-c2c(O)cc(C)oc2=O)cc1	≥ 14.7	> 100		
Oc1cc2c(cc1-c1ccc(Br)cc1)OCO2	14.7	> 100		
O=C(/C=C/c1ccc(Cl)cc1)[C@H]1[C@H](c2ccc(Cl)cc2)C2CSCN2C12C(=O)Nc1c(Br)cc(Br)cc12 (stereo partly drawn)				IC50 (HCT-116): < 3 µM
CN(C)CCc1c(O)c2ccccc2oc1=O	≥ 14.7	> 100		
Cc1cc(O)c(-c2ccc(F)cc2)c(=O)o1	≥ 14.7	> 100		
O=[N+]([O-])c1c(Cl)cc2c(no[n+]2[O-])c1Nc1ccc(C2CCCCC2)c(O)c1	≥ 14.7	> 100		
CN(C)CCc1ccc(Nc2c([N+](=O)[O-])c(Cl)cc3c2no[n+]3[O-])cc1O	≥ 14.7	> 100		
O=c1oc2ccccc2c(O)c1C1CCCCC1	≥ 14.7	> 100		
O=[N+]([O-])c1c(Cl)cc2c(no[n+]2[O-])c1Nc1ccc(-c2ccccc2)c(O)c1	≥ 14.7	> 100		
O=c1oc2ccccc2c(O)c1-c1ccc(Br)cc1	≥ 14.7	> 100		
COc1ccc(-c2ccc(Nc3c([N+](=O)[O-])c(Cl)cc4c3no[n+]4[O-])cc2O)cc1	≥ 14.7	> 100		
O=C(/C=C/c1ccc(C(F)(F)F)cc1)[C@H]1[C@H](c2ccc(C(F)(F)F)cc2)[C@H]2CSCN2[C@]12C(=O)Nc1ccccc12				IC50 (PC-3): 1 µM; IC50 (HepG2 [3]): ≥ 1.5 µM
O=C(/C=C/c1cccc(Br)c1)[C@H]1[C@H](c2cccc(Br)c2)C2CSCN2C12C(=O)Nc1c(Br)cc(Br)cc12 (stereo partly drawn)				IC50 (HCT-116): < 3 µM
O=C(/C=C/c1ccc(F)cc1)[C@H]1[C@H](c2ccc(F)cc2)[C@H]2CSCN2[C@]12C(=O)Nc1ccc(Br)cc12				IC50 (PC-3): ≥ 0.8 µM; IC50 (HepG2 [3]): 0.8 µM
O=C(/C=C/c1ccc(F)cc1)[C@H]1[C@H](c2ccc(F)cc2)C2CSCN2C12C(=O)Nc1c(Br)cc(Br)cc12 (stereo partly drawn)				IC50 (HepG2 [3]): ≥ 0.8 µM; IC50 (HCT-116): 1.57 mg/L; IC50 (MCF7 [2]): 2.5 mg/L
Cc1cc(O)cc(=O)o1	≥ 14.7	> 100		
O=c1oc2ccccc2c(O)c1-c1ccccc1	≥ 14.7	> 100		
Cc1ccc(S(=O)(=O)N2CCCC2C(=O)Nc2ccc3c(C)cc(=O)oc3c2)cc1 (single isomer, unassigned)				IC50 (MCF7 [2]): 1.07 µM
O=c1cc(O)c2ccccc2o1 [4-HYDROXYCOUMARINS]	≥ 14.7	> 100		
CCCCCCCCCCCCCCCCOP(=O)([O-])OCC[N+](C)(C)C [MILTEFOSINE]				inhibition at 100 µM (HepG2 [4]): 31.3%; inhibition at 100 µM (MCF7 [5]): 69.4%; inhibition at 100 µM (A-431): 35.4%
